Measured values published in patent publication US20180213796A1, “PLANT DISEASE CONTROL COMPOSITION AND PLANT DISEASE CONTROL METHOD” (SUMITOMO CHEMICAL COMPANY, LIMITED, priority 2015, published 2018).

How the values were obtained:
[1] = system: damping-off fungus (Rhizoctonia solani); test: Test Example 15: soybean seed treatment, pot test in soil mixed with damping-off fungus, control value; format: in vivo; settings: soybean seeds, 20 days after
Method: In a rotary seed treatment machine (trade name: HEGE11, manufactured by WINTERSTEIGER), soybean seeds (variety: “Hatayutaka”) were treated by smearing treatment using the flowable formulation of the present bacterial strain obtained in Formulation Example 19 and a chemical liquid wherein ipconazole was dissolved in acetone/Tween 20 (weight ratio=95:5) and diluted with water, so that the soybean seeds retain the present bacterial strain and the compound in the amount shown in Table 5.
Cultivation was carried out in a greenhouse under irrigation (“treated compartment”). The plants were investigated 20 days after for the number of diseased plants, and the disease incidence was calculated by the following “Equation 1”. Also, similar procedures were conducted using untreated soybean seeds, instead of the treated soybean seeds, as described above for the treated compartment (“untreated compartment”). The plants were investigated 20 days after for the number of diseased plants, and the disease incidence was calculated by the following “Equation 1”. The control value of the treated compartment was calculated by the following equation “Equation 2”, based on the disease incidences of the treated compartment and the untreated compartment.
Disease incidence (%)=100×(number of diseased plant/total number of seeded seeds) Equation 1 […]

[2] = system: damping-off fungus (Rhizoctonia solani); test: Test Example 14: corn seed treatment, pot test in soil mixed with damping-off fungus, control value; format: in vivo; settings: corn seeds, 20 days after
Method: In a rotary seed treatment machine (trade name: HEGE11, manufactured by […]), corn seeds (variety: yellow dent corn) were treated by smearing treatment using a flowable formulation of the present bacterial strain as obtained in Formulation Example 19, metconazole flowable formulation (40.0% flowable formulation, trade name: Metolock Fungicide, Valent U.S.A. Corporation), a chemical liquid prepared by dissolving tebuconazole in acetone/Tween 20 (weight ratio=95:5) and diluting with water, a chemical liquid prepared by dissolving prothioconazole in acetone/Tween 20 (weight ratio=95:5) and diluting with water, a chemical liquid prepared by dissolving difenoconazole in acetone/Tween 20 (weight ratio=95:5) and diluting with water, a chemical liquid prepared by dissolving triticonazole in acetone/Tween 20 (weight ratio=95:5) and diluting with water, a chemical liquid prepared by dissolving triadimenol in acetone/Tween 20 (weight ratio=95:5) and diluting with water, a chemical liquid prepared by dissolving bromconazole in acetone/Tween 20 (weight ratio=95:5) and diluting with water, so that the soybean seeds retain the present bacterial strain and the compound in the amount shown in Table 4.
Cultivation was carried out in a greenhouse under irrigation (“treated compartment”). The plants were investigated 20 days after for the number of diseased plants, and the disease incidence was calculated by the following “Equation 1”. […] The plants were investigated 20 days after for the number of diseased plants, and the disease incidence was calculated by the following “Equation 1”. The control value of the treated compartment was calculated by the following equation “Equation 2”, based on the disease incidences of the treated compartment and the untreated compartment.
Disease incidence (%)=100×(number of diseased plant/total number of seeded seeds) Equation 1
Control value (%)=100×[(disease incidence in untreated compartment−disease incidence in treated compartment)/disease incidence in untreated compartment] Equation 2 […]

[3] = compound alone 0.005 g/Kg seeds

SMILES	Controlling Effect (control value) [2, 3] [%]	Controlling Effect (control value) ([2]; compound alone 0.01 g/Kg seeds) [%]	other results
CC(C)C1CCC(Cc2ccc(Cl)cc2)C1(O)Cn1cncn1 (stereo not shown) [Ipconazole]			Controlling Effect (control value) [1, 3]: 27%; Controlling Effect (control value) ([1]; compound alone 0.01 g/Kg seeds): 33%
CC1(C)CCC(=Cc2ccc(Cl)cc2)C1(O)Cn1cncn1 (stereo not shown) [Triticonazole]	17	25	
CC(C)(C)C(O)C(Oc1ccc(Cl)cc1)n1cncn1 (stereo not shown) [Triadimenol]	33	42	
CC(C)(C)C(O)(CCc1ccc(Cl)cc1)Cn1cncn1 (stereo not shown) [Tebuconazole]		25	Controlling Effect (control value) ([2]; compound alone 0.02 g/Kg seeds): 33%
CC1COC(Cn2cncn2)(c2ccc(Oc3ccc(Cl)cc3)cc2Cl)O1 (stereo not shown) [Difenoconazole]	58		Controlling Effect (control value) ([2]; compound alone 0.0025 g/Kg seeds): 33%
Clc1ccc(C2(Cn3cncn3)CC(Br)CO2)c(Cl)c1 (stereo not shown) [Bromconazole]	17	33	
OC(Cc1ccccc1Cl)(Cn1nc[nH]c1=S)C1(Cl)CC1 (stereo not shown) [Prothioconazole]	42	50	
CC1(C)CCC(Cc2ccc(Cl)cc2)C1(O)Cn1cncn1 (stereo not shown) [Metconazole]			Controlling Effect (control value) ([2]; compound alone 0.0005 g/Kg seeds): 25%; Controlling Effect (control value) ([2]; compound alone 0.001 g/Kg seeds): 33%
